Drawing on PubChem BioAssay AID977605 (Broad Institute, 2014), this text covers activation for 46 compounds.

Activity calls are given as the source filed them.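 The calls were made as follows: active = fitted curve reaches 40% activation below the top valid tested dose, in every test run; inconclusive = test runs disagree on the call; inactive = the rest, including effects opposite to the expected direction.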

The first assay is described as follows: E-selectin inducers in HUVECs, dose response, imaging, HUVEC, cherry-picked samples (AID 977605).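 Also: signal is the share of imaged cells scored positive for E-selectin.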 The conditions noted are these: HUVEC E-selectin immunostaining, at 19.5 µM (top of the series), percent of TNF-alpha response over vehicle.
`C[C@@H]1CN([C@H](C)CO)C(=O)c2cc(NC(=O)NC3CCCCC3)ccc2O[C@H]1CN(C)S(=O)(=O)c1ccc(Cl)cc1`: the activation was 1.03% (inactive).
On the same count and under the same terms, to `CCOc1cnc(C(=O)NNC(=O)c2ccccc2Br)o1` belongs 0.602% (inactive).
Same read-out and setting: the figure for `CC(C)NC(=O)N(C)C[C@@H]1Oc2ccc(NC(=O)CCC(F)(F)F)cc2CC(=O)N([C@@H](C)CO)C[C@H]1C` is 0.007% (inactive).
With `COc1ccc(S(=O)(=O)Nc2ccc3c(c2)C(=O)N([C@@H](C)CO)C[C@H](C)[C@@H](CN(C)Cc2ccc(Cl)c(Cl)c2)O3)cc1`, the activation was -0.097% (inactive).
On to `Cc1ccc(S(=O)(=O)Nc2ccc3c(c2)C(=O)N([C@H](C)CO)C[C@H](C)[C@H](CN(C)C(=O)Nc2cccc4ccccc24)OCCCC[C@@H](C)O3)cc1`, for which the activation is 7.64% (inactive).
As to `O=S(=O)(c1ccc(F)cc1)N1CCCN(c2nccc(C(F)(F)F)n2)CC1`, the activation is -0.174% (inactive).
Still for that read-out and setting: to `C[C@H](CO)N1C[C@H](C)[C@H](CN(C)C(=O)NC2CCCCC2)Oc2ccc(NS(=O)(=O)c3ccccc3)cc2C1=O` belongs -0.156% (inactive); to `CC(C)NC(=O)Nc1cccc2c1O[C@@H](CN(C)Cc1ccc(C(F)(F)F)cc1)[C@H](C)CN([C@H](C)CO)C2=O`, -0.054% (inactive).
The same measure, in the same setting: to `C[C@@H]1CN([C@H](C)CO)C(=O)c2cc(N(C)C)ccc2O[C@H]1CN(C)Cc1ccc(C(=O)O)cc1` belongs -0.039% (inactive); to `C[C@@H]1CN([C@H](C)CO)C(=O)Cc2cc(NS(=O)(=O)c3ccc(F)cc3)ccc2O[C@H]1CN(C)S(=O)(=O)c1ccc(Cl)cc1`, 5.23% (inactive); to `Cc1c(C(=O)N2CCN(S(=O)(=O)c3cc(F)ccc3F)CC2)oc2ccccc12`, -0.021% (inactive).
The same measure, in the same setting: the figure for `C[C@@H]1CN([C@H](C)CO)C(=O)Cc2cc(NC(=O)Nc3ccc(F)cc3)ccc2O[C@H]1CN(C)S(=O)(=O)c1ccc(Cl)cc1` is 0.054% (inactive); for `OC(COC(c1ccccc1)c1ccccc1)CN1CCOCC1` (stereo unspecified) it is 2% (inactive).
For `CC1CCC(NC(=O)CCN2C(=O)C3C4C=CC(C4)C3C2=O)CC1` (stereo unspecified), the activation was 0.46% (inactive).
Still for that read-out and setting: to `C[C@@H]1CN([C@H](C)CO)C(=O)c2cc(N(C)C)ccc2O[C@H]1CN(C)S(=O)(=O)c1cn(C)cn1` belongs -0.007% (inactive).
On the same count and under the same terms, to `C[C@@H]1CN([C@@H](C)CO)C(=O)c2cc(NC(=O)Nc3ccc(C(F)(F)F)cc3)ccc2O[C@@H]1CN(C)Cc1ccc(Oc2ccccc2)cc1` belongs -0.275% (inactive); to `C[C@@H]1CN([C@@H](C)CO)C(=O)c2cc(NC(=O)NC3CCCCC3)ccc2O[C@@H]1CN(C)Cc1ccc2c(c1)OCO2`, -0.021% (inactive); to `C[C@@H]1CN([C@H](C)CO)C(=O)c2cccc(NC(=O)Nc3ccc(F)cc3)c2O[C@H]1CN(C)C(=O)NC1CCCCC1`, 0.496% (inactive).
On the same count and under the same terms, the figure for `O=S(=O)(NCc1cccnc1)c1ccc(Cl)c2ccccc12` is 0.304% (inactive); for `O=C(c1cncc(Br)c1)N1CCN(S(=O)(=O)c2ccccc2C(F)(F)F)CC1` it is -0.01% (inactive); for `Cc1ccc(S(=O)(=O)NNC(=O)c2cccc(O)c2)cc1` it is -0.007% (inactive).
On to `CC(C)NC(=O)N(C)C[C@@H]1Oc2c(NC(=O)c3ccc(-c4nccs4)cc3)cccc2C(=O)N([C@H](C)CO)C[C@H]1C`, for which the activation was -0.093% (inactive).
Same read-out and setting: the figure for `COc1ccccc1CSc1nc2c(c(=O)n(C)c(=O)n2C)n1C` is -0.003% (inactive); for `N#CC1(NC(=O)CN2C(=O)c3ccccc3C2=O)CCCCC1` it is 16.1% (inactive).
The same measure, in the same setting: the figure for `C[C@H](CO)N1C[C@H](C)[C@H](CN(C)S(=O)(=O)c2ccccc2)Oc2ccc(NC(=O)Nc3ccc(F)cc3)cc2CC1=O` is 0.322% (inactive); for `CC(=O)NC1C(=O)N(CCN2CCOCC2)c2ccc(F)cc21` (stereo unspecified) it is -0.179% (inactive).
Still for that read-out and setting: to `C[C@@H]1CN([C@@H](C)CO)C(=O)Cc2cc(NC(=O)Cn3cnnn3)ccc2O[C@H]1CN(C)C(=O)Nc1ccc(F)cc1` belongs 0.031% (inactive).
As for `C[C@@H]1CN([C@H](C)CO)C(=O)c2cc(NC(=O)Cc3ccccc3)ccc2O[C@H]1CN(C)C(=O)NC1CCCCC1`, the activation was 0.096% (inactive).
On the same count and under the same terms, to `CC(C)(CN1CCCC1)NS(=O)(=O)c1ccc(Cl)cc1` belongs -0.279% (inactive); to `C[C@@H]1CN([C@H](C)CO)C(=O)c2cccc(NC(=O)C3CC3)c2O[C@@H]1CN(C)CC1CC1`, -0.106% (inactive).
Same read-out and setting: to `COc1ccc(-c2nc(NC(=O)Cn3c(=O)oc4ccccc43)sc2C)cc1` belongs 1.37% (inactive); to `COc1ccc(CCNS(=O)(=O)c2ccc3c(c2)NC(=O)CS3)cc1OC`, -0.024% (inactive).
Still for that read-out and setting: to `N#Cc1cccnc1N1CCC(C(N)=O)CC1` belongs 0.067% (inactive); to `C[C@@H]1CN([C@@H](C)CO)C(=O)Cc2cc(NS(C)(=O)=O)ccc2O[C@H]1CN(C)Cc1ccncc1`, -0.007% (inactive); to `O=C(NCc1ccccc1)C1CCCN(S(=O)(=O)c2ccc(-n3cnnn3)cc2)C1` (stereo unspecified), 1.85% (inactive).

The assay is the same for the next values; noted with them: HUVEC E-selectin immunostaining, at 21 µM (top of the series), percent of TNF-alpha response over vehicle.
Regarding `C[C@H](CO)N1C[C@H](C)[C@@H](CN(C)C)Oc2c(NC(=O)CCCCCC(=O)Nc3ccccc3N)cccc2C1=O`, the activation was -0.097% (inactive).
The same measure, in the same setting: the figure for `C[C@@H]1CN([C@H](C)CO)C(=O)c2cc(NC(=O)Nc3ccc4c(c3)OCO4)ccc2O[C@H]1CN(C)S(=O)(=O)c1ccccc1` is -0.095% (inactive); for `C[C@H](CO)N1C[C@H](C)[C@H](CN(C)C)Oc2ccc(NC(=O)Nc3ccccc3)cc2CC1=O` it is -0.138% (inactive); for `Cc1noc(C)c1NC(=O)Nc1cccc2c1O[C@@H](CN(C)CC1CCCCC1)[C@H](C)CN([C@@H](C)CO)C2=O` it is -0.074% (inactive).
On the same count and under the same terms, the figure for `C[C@H](CO)N1C[C@H](C)[C@H](CN(C)S(=O)(=O)c2ccc(Cl)cc2)Oc2ccc(NC(=O)Nc3ccc(F)cc3)cc2CC1=O` is 0.805% (inactive).
As for `CC(C)NC(=O)N(C)C[C@@H]1Oc2c(NC(=O)c3ccc(-c4nccs4)cc3)cccc2C(=O)N([C@@H](C)CO)C[C@@H]1C`, the activation was -0.199% (inactive).
Still for that read-out and setting: the figure for `COc1ccc(S(=O)(=O)N(C)C[C@H]2Oc3ccc(NC(=O)Nc4ccc5c(c4)OCO5)cc3CC(=O)N([C@H](C)CO)C[C@H]2C)cc1` is 0.257% (inactive); for `C[C@@H]1CN([C@H](C)CO)C(=O)Cc2cc(NC(=O)Cc3cn(C)c4ccccc34)ccc2O[C@@H]1CN(C)Cc1ccc(C(F)(F)F)cc1` it is 0.433% (inactive).
As for `C[C@H](CO)N1C[C@H](C)[C@@H](CN(C)S(C)(=O)=O)Oc2c(NC(=O)C3CCCCC3)cccc2C1=O`, the activation is 0.25% (inactive).
The same measure, in the same setting: to `C[C@H](CO)N1C[C@H](C)[C@H](CN(C)C(=O)Nc2ccc3c(c2)OCO3)Oc2c(NS(=O)(=O)c3ccc(Cl)cc3)cccc2C1=O` belongs -0.135% (inactive); to `COc1ccc(S(=O)(=O)Nc2ccc3c(c2)CC(=O)N([C@@H](C)CO)C[C@H](C)[C@@H](CN(C)C(=O)NC2CCCCC2)O3)cc1`, 0.142% (inactive).
